Counter-ions that a name gives are not always drawn. Like-named read-outs stand apart in the source and are kept apart here.
How the values were obtained:
[1] = background statement on the free acid; cited from earlier work
[2] = Water solubility of etodolic acid and its salts; format: physicochemical; conditions: for solubility: water
Experimental: Etodolic acid was taken into consideration as a typical representative, particularly appreciated from the pharmacological point of view, of said derivatives and some typical salts thereof were prepared.
(§1) In order to avail oneself of a derivative usable in therapy, it is necessary, in fact, to obtain a highly soluble substance, also considering the doses of etodolic acid which have to be administered for getting an efficient therapeutic action (at least 200 mg twice a day in the adult).

[3] = Colour and stability of aqueous solutions of the salts (quickened ageing tests); format: physicochemical; conditions: for colour of the solutions: aqueous solutions
Experimental: as §1

[4] = pH of aqueous solutions of the sodium salt; format: physicochemical
Text: The 20% solution has a pH of 8.7, while a 7.3% solution has a pH of 7.8.

[5] = Stability in a 10% aqueous solution at various temperatures; format: physicochemical; conditions: for remaining at 720 h / remaining at 1440 h / remaining at 2160 h: water, read-out: Titre % (HPLC)
Text: (§2) The following tables No.1, 2 and 3 respectively show the stability data of sodium etodolate in aqueous solutions at 10% and 20% at various temperatures and again at 10% after sterilization in autoclave in a closed container.

[6] = Stability in a 20% aqueous solution at various temperatures; format: physicochemical; conditions: for remaining at 720 h / remaining at 1440 h / remaining at 2160 h: water, read-out: Titre % (HPLC)
Text: as §2

[7] = Stability after sterilization at 120°C in autoclave for 20 min; format: physicochemical; conditions: 10% aqueous solution
Text: as §2

[8] = after sterilization at 120°C in autoclave for 20 min, closed container

CCc1cccc2c3c([nH]c12)C(CC)(CC(=O)O)OCC3 (centres unmarked) [etodolic acid, 1,8-diethyl-1,3,4,9-tetrahydropyran-[3,4-b] indol-1-acetic acid]
water-insoluble: water solubility (in words) [1]

CCc1cccc2c3c([nH]c12)C(CC)(CC(=O)O)OCC3 (centres unmarked) [potassium salt, reference compound]
not much stable: stability of the solutions ([3]; quickened ageing tests)
deeply coloured: colour of the solutions [3]
2%: solubility [2]

CCc1cccc2c3c([nH]c12)C(CC)(CC(=O)O)OCC3 (centres unmarked) [sodium salt of etodolic acid, Sodium salt of etodolic acid]
unchanged: Colour ([5]; 5°C, 1 month) | Colour ([5]; 5°C, 2 month) | Colour ([5]; 5°C, 3 month) | Colour ([5]; 25°C, 1 month) | Colour ([5]; 25°C, 2 month) | Colour ([5]; 25°C, 3 month) | Colour ([5]; 45°C, 1 month) | Colour ([5]; 45°C, 2 month) | Colour ([5]; 45°C, 3 month) | Colour ([6]; 5°C, 1 month) | Colour ([6]; 5°C, 2 month) | Colour ([6]; 5°C, 3 month) | Colour ([6]; 25°C, 1 month) | Colour ([6]; 25°C, 2 month) | Colour ([6]; 25°C, 3 month) | Colour ([6]; 45°C, 1 month)
7.8: pH ([4]; 7.3% solution) | pH ([5]; 5°C, 1 month) | pH ([5]; 5°C, 2 month) | pH ([5]; 25°C, 1 month) | pH ([5]; 25°C, 3 month) | pH ([5]; 45°C, 1 month) | pH ([5]; 45°C, 2 month) | pH ([5]; at starting point) | pH [7, 8] | pH ([7]; at starting-point)
99%: remaining at 720 h ([5]; 5°C, 1 month) | remaining at 2160 h ([5]; 25°C, 3 month) | remaining at 1440 h ([5]; 45°C, 2 month) | remaining at 720 h ([6]; 5°C, 1 month) | remaining at 1440 h ([6]; 25°C, 2 month) | remaining at 720 h ([6]; 45°C, 1 month)
very stable during time: stability of the solutions ([3]; during time)
> 200 mg/mL: solubility ([2]; water-soluble)
deep yellow: Colour ([6]; 45°C, 2 month) | Colour ([6]; 45°C, 3 month)
7.85: pH ([5]; 25°C, 2 month)
100%: Titre % (HPLC) ([5]; at starting point) | remaining at 1440 h ([5]; 5°C, 2 month) | remaining at 2160 h ([5]; 5°C, 3 month) | remaining at 720 h ([5]; 25°C, 1 month) | remaining at 1440 h ([5]; 25°C, 2 month) | remaining at 720 h ([5]; 45°C, 1 month) | remaining at 2160 h ([5]; 45°C, 3 month) | Titre % (HPLC) ([6]; at starting point) | remaining at 1440 h ([6]; 5°C, 2 month) | remaining at 720 h ([6]; 25°C, 1 month) | remaining at 2160 h ([6]; 25°C, 3 month) | Titre % (HPLC) ([7]; at starting-point) | remaining at 20 min ([7]; water, after sterilization at 120°C in autoclave for 20 min, closed container, read-out: Titre (%) (HPLC))
97%: remaining at 2160 h ([6]; 5°C, 3 month)
only fleebly yellow-coloured: colour of the solutions [3]
8.7: pH ([4]; 20% solution) | pH ([6]; 5°C, 1 month) | pH ([6]; 5°C, 2 month) | pH ([6]; 25°C, 1 month) | pH ([6]; 25°C, 3 month) | pH ([6]; 45°C, 2 month) | pH ([6]; 45°C, 3 month) | pH ([6]; at starting point)
7.7: pH ([5]; 45°C, 3 month)
pale yellow: Colour ([5]; at starting point) | Colour ([6]; at starting point) | Colour of the solution [7, 8] | Colour of the solution ([7]; at starting-point)
easily soluble in water: water solubility (in words) [2]
exceed 20 % by weight: solubility [2]
8.6: pH ([6]; 5°C, 3 month) | pH ([6]; 25°C, 2 month) | pH ([6]; 45°C, 1 month)
98%: remaining at 1440 h ([6]; 45°C, 2 month) | remaining at 2160 h ([6]; 45°C, 3 month)
7.75: pH ([5]; 5°C, 3 month)
limpid: Appearance of the solution [7, 8] | Appearance of the solution ([7]; at starting-point)
quite stable: stability ([3]; most different storage and treatment conditions (summary of Tables 1-3))

Reference: patent publication EP0221032A2, “Sodium salt of etodolic acid and process for its preparation” (priority 1985, dated 1987)
